Results published in patent publication US12247011B2, “Selective inhibitors of NLRP3 inflammasome” (NodThera Limited, priority 2017, dated 2025).

What follows are compounds tested on IL-1β release upon NLRP3 activation in peripheral blood mononuclear cells (PBMC) (assay: PBMC IC50 Determination Assay). Conditions: Homo sapiens; LPS-primed PBMC, 30 min compound, stimulated with ATP (5 mM) or nigericin (10 μM) for 1 h; IL-1β ELISA; read-out: PBMC IC50.
Assay type: cell-based
Procedure: PBMC IC50 Determination Assay
The compounds of the present disclosure were tested for their inhibitory activity against IL-1β release upon NLRP3 activation in peripheral blood mononuclear cells (PBMC).
Isolated cells were seeded into the wells of a 96-well plate and incubated for 3 h with lipopolysaccharide (LPS). Following medium exchange, the compounds of the present disclosure were added (a single compound per well) and the cells were incubated for 30 min. Next, the cells were stimulated either with ATP (5 mM) or nigericin (10 μM) for 1 h and the cell culture media from the wells were collected for further analysis.
The release of IL-1β into the media was determined by a quantitative detection of IL-1β in the media using an IL-1β enzyme-linked immunosorbent assay (ELISA) Ready-SET-Go!, eBioscience cat. […] Subsequently, plates were blocked with blocking buffer for 1 h at room temperature (rt) and after washing with a buffer (PBS with 0.05% Tween-20) incubated with protein standard and culture media. […] Plates were washed and incubated with HRP-streptavidin for 30 min at rt and washed again. The signal was developed after addition of 3,3,5,5-tetramethylbenzidine-peroxidase (TMB) until colour appeared and the reaction was stopped by 2 M H2SO4. A microplate spectrophotometer (BioTek) was used to detect signals with 450 nm. The detection range of IL-1β ELISA was 2-150 ng/ml.

| Structure (SMILES) | IC50 [nM] |
| --- | --- |
| CC(C)OC(=O)C(Cc1ncccn1)OC(=O)N[C@H]1CCCC[C@@H]1C (relative stereo) [Compound 129, Propan-2-yl 2-{[(trans-2-methylcyclohexyl)carbamoyl]oxy}-3-(pyrimidin-2-yl)propanoate] | 1000 to 10000 |
| CCOC(=O)COC(=O)Nc1c(F)cccc1F [Compound 2, Ethyl 2-{[(2,6-difluorophenyl)carbamoyl]oxy}acetate] | 1000 to 10000 |
| CCOC(=O)COC(=O)Nc1c(Cl)cccc1Cl [Compound 3, Ethyl 2-{[(2,6-dichlorophenyl)carbamoyl]oxy}acetate] | 100 to 1000 |
| CCOC(=O)COC(=O)Nc1cccc2ccccc12 [Compound 4, Ethyl 2-{[(naphthalen-1-yl)carbamoyl]oxy}acetate] | 1000 to 10000 |
| CCOC(=O)COC(=O)Nc1cccc2c1OC(C)(C)C2 [Compound 5, Ethyl 2-{[(2,2-dimethyl-2,3-dihydro-1-benzofuran-7-yl)carbamoyl]oxy}acetate] | > 10000 |
| CCOC(=O)C(COC)OC(=O)Nc1c2c(cc3c1CCC3)CCC2 (centres unmarked) [Compound 6, Ethyl 2-{[(1,2,3,5,6,7-hexahydro-s-indacen-4-yl)carbamoyl]oxy}-3-methoxypropanoate] | 10 to 100 |
| CCOC(=O)COC(=O)Nc1cc(C(F)(F)F)ccc1F [Compound 7, Ethyl 2-({[2-fluoro-5-(trifluoromethyl)phenyl]carbamoyl}oxy)acetate] | 1000 to 10000 |
| CCOC(=O)COC(=O)Nc1c(C)cccc1C [Compound 8, Ethyl 2-{[(2,6-dimethylphenyl)carbamoyl]oxy}acetate] | 100 to 1000 |
| CCOC(=O)COC(=O)Nc1c(CC)cccc1CC [Compound 9, Ethyl 2-{[(2,6-diethylphenyl)carbamoyl]oxy}acetate] | 100 to 1000 |
| CCOC(=O)COC(=O)Nc1c(C)cccc1Cl [Compound 10] | 1000 to 10000 |
| CCOC(=O)COC(=O)Nc1ccccc1C#N [Compound 11, Ethyl 2-{[(2-cyanophenyl)carbamoyl]oxy}acetate] | 1000 to 10000 |
| CCOC(=O)C(Cc1cccnc1)OC(=O)Nc1c2c(cc3c1CCC3)CCC2 (centres unmarked) [Compound 12, Ethyl 2-{[(1,2,3,5,6,7-hexahydro-s-indacen-4-yl)carbamoyl]oxy}-3-(pyridin-3-yl)propanoate] | 10 to 100 |
| CCOC(=O)COC(=O)Nc1ccccc1C(C)(C)C [Compound 13, Ethyl 2-{[(2-tert-butylphenyl)carbamoyl]oxy}acetate] | 1000 to 10000 |
| CCOC(=O)COC(=O)Nc1c(C)cc(C)cc1C [Compound 14, Ethyl 2-((mesitylcarbamoyl)oxy)acetate] | 1000 to 10000 |
| CCOC(=O)COC(=O)Nc1ccccc1C(C)C [Compound 15, Ethyl 2-(((2-isopropylphenyl)carbamoyl)oxy)acetate] | 1000 to 10000 |
| CCOC(=O)COC(=O)Nc1c(C)cccc1CC [Compound 16, Ethyl 2-(((2-ethyl-6-methylphenyl)carbamoyl)oxy)acetate] | 100 to 1000 |
| CCOC(=O)C(Cc1ccccc1)OC(=O)Nc1c2c(cc3c1CCC3)CCC2 (centres unmarked) [Compound 17, Ethyl 2-(((1,2,3,5,6,7-hexahydro-s-indacen-4-yl)carbamoyl)oxy)-3-phenylpropanoate] | 100 to 1000 |
| CCOC(=O)C(Cc1ccccn1)OC(=O)Nc1c2c(cc3c1CCC3)CCC2 (centres unmarked) [Compound 18, Ethyl 2-(((1,2,3,5,6,7-hexahydro-s-indacen-4-yl)carbamoyl)oxy)-3-(pyridin-2-yl)propanoate] | 100 to 1000 |
| CCOC(=O)[C@@H](C)OC(=O)Nc1c2c(cc3c1CCC3)CCC2 [Compound 19, Ethyl (2R)-2-{[(1,2,3,5,6,7-hexahydro-s-indacen-4-yl)carbamoyl]oxy}propanoate] | 1000 to 10000 |
| CC(C)OC(=O)COC(=O)Nc1c2c(cc3c1CCC3)CCC2 [Compound 20, Propan-2-yl 2-{[(1,2,3,5,6,7-hexahydro-s-indacen-4-yl)carbamoyl]oxy}acetate] | 100 to 1000 |
| CCCOC(=O)COC(=O)Nc1c2c(cc3c1CCC3)CCC2 [Compound 21] | 100 to 1000 |
| O=C(COC(=O)Nc1c2c(cc3c1CCC3)CCC2)OCC1CC1 [Compound 22, Cyclopropylmethyl 2-{[(1,2,3,5,6,7-hexahydro-s-indacen-4-yl)carbamoyl]oxy}acetate] | 100 to 1000 |

| Structure (SMILES) | IC50 [nM] |
| --- | --- |
| O=C(COC(=O)Nc1c2c(cc3c1CCC3)CCC2)OC1CCC1 [Compound 23, Cyclobutyl 2-{[(1,2,3,5,6,7-hexahydro-s-indacen-4-yl)carbamoyl]oxy}acetate] | 100 to 1000 |
| CC(C)COC(=O)COC(=O)Nc1c2c(cc3c1CCC3)CCC2 [Compound 24, 2-methylpropyl 2-{[(1,2,3,5,6,7-hexahydro-s-indacen-4-yl)carbamoyl]oxy}acetate] | 100 to 1000 |
| CCOC(=O)[C@@H](Cc1ccc(C#N)cc1)OC(=O)Nc1c2c(cc3c1CCC3)CCC2 [Compound 25, Ethyl 3-(4-cyanophenyl)-2-{[(1,2,3,5,6,7-hexahydro-s-indacen-4-yl)carbamoyl]oxy}propanoate] | 100 to 1000 |
| O=C(O)COC(=O)Nc1c2c(cc3c1CCC3)CCC2 [Compound 27, 2-{[(1,2,3,5,6,7-Hexahydro-s-indacen-4-yl)carbamoyl]oxy}acetic acid] | 1000 to 10000 |
| CCOC(=O)COC(=O)Nc1c(CC)cc(C)cc1CC [Compound 28, Ethyl 2-{[(2,6-diethyl-4-methylphenyl)carbamoyl]oxy}acetate] | 1000 to 10000 |
| COC(=O)COC(=O)Nc1c2c(cc3c1CCC3)CCC2 [Compound 29, Methyl 2-{[(1,2,3,5,6,7-hexahydro-s-indacen-4-yl)carbamoyl]oxy}acetate] | 1000 to 10000 |
| CCOC(=O)[C@@H](CCc1ccccc1)OC(=O)Nc1c2c(cc3c1CCC3)CCC2 [Compound 30, Ethyl (2R)-2-{[(1,2,3,5,6,7-hexahydro-s-indacen-4-yl)carbamoyl]oxy}-4-phenylbutanoate] | 100 to 1000 |
| O=C(COC(=O)Nc1c2c(cc3c1CCC3)CCC2)OC1CCCC1 [Compound 32, Cyclopentyl 2-{[(1,2,3,5,6,7-hexahydro-s-indacen-4-yl)carbamoyl]oxy}acetate] | 100 to 1000 |
| CCOC(=O)C(Cn1ccnc1)OC(=O)Nc1c2c(cc3c1CCC3)CCC2 (centres unmarked) [Compound 33, Ethyl 2-{[(1,2,3,5,6,7-hexahydro-s-indacen-4-yl)carbamoyl]oxy}-3-(1H-imidazol-1-yl)propanoate] | 100 to 1000 |
| CCOC(=O)COC(=O)Nc1c(C(C)C)cccc1C(C)C [Compound 34, Ethyl 2-({[2,6-bis(propan-2-yl)phenyl]carbamoyl}oxy)acetate] | 1000 to 10000 |
| CCOC(=O)COC(=O)Nc1cc(C(F)(F)F)ccc1Cl [Compound 35, Ethyl 2-({[2-chloro-5-(trifluoromethyl)phenyl]carbamoyl}oxy)acetate] | > 10000 |
| CCOC(=O)COC(=O)Nc1cc(C)ccc1C [Compound 37, Ethyl 2-{[(2,5-dimethylphenyl)carbamoyl]oxy}acetate] | 100 to 1000 |
| COCC(OC(=O)Nc1c2c(cc3c1CCC3)CCC2)C(=O)O (centres unmarked) [Compound 38, 2-{[(1,2,3,5,6,7-hexahydro-s-indacen-4-yl)carbamoyl]oxy}-3-methoxypropanoic acid] | 1000 to 10000 |
| O=C(COC(=O)Nc1c2c(cc3c1CCC3)CCC2)OC1CC1 [Compound 39, cyclopropyl 2-{[(1,2,3,5,6,7-hexahydro-s-indacen-4-yl)carbamoyl]oxy}acetate] | 1000 to 10000 |
| O=C(Nc1c2c(cc3c1CCC3)CCC2)OC(Cn1cccn1)C(=O)O (centres unmarked) [Compound 40, 2-{[(1,2,3,5,6,7-hexahydro-s-indacen-4-yl)carbamoyl]oxy}-3-(1H-pyrazol-1-yl)propanoic acid] | 100 to 1000 |
| CCOC(=O)[C@@H](Cc1cccc(C#N)c1)OC(=O)Nc1c2c(cc3c1CCC3)CCC2 [Compound 41, Ethyl (2R)-3-(3-cyanophenyl)-2-{[(1,2,3,5,6,7-hexahydro-s-indacen-4-yl)carbamoyl]oxy}propanoate] | 10 to 100 |
| CCOC(=O)C(Cc1cccc(-n2cccn2)c1)OC(=O)Nc1c2c(cc3c1CCC3)CCC2 (centres unmarked) [Compound 42, Ethyl 2-{[(1,2,3,5,6,7-hexahydro-s-indacen-4-yl)carbamoyl]oxy}-3-[3-(1H-pyrazol-1-yl)phenyl]propanoate] | 100 to 1000 |
| CCOC(=O)[C@@H](Cc1cccc(-n2cccn2)c1)OC(=O)Nc1c2c(cc3c1CCC3)CCC2 [Compound 43, Ethyl (2R)-2-{[(1,2,3,5,6,7-hexahydro-s-indacen-4-yl)carbamoyl]oxy}-3-[3-(1H-pyrazol-1-yl)phenyl]propanoate] | 100 to 1000 |
| CCOC(=O)C(Cn1cccn1)OC(=O)Nc1c(F)cccc1F (centres unmarked) [Compound 44] | 100 to 1000 |
| CCOC(=O)C(Cn1cccn1)OC(=O)Nc1ccccc1 (centres unmarked) [Compound 45, Ethyl 2-[(phenylcarbamoyl)oxy]-3-(1H-pyrazol-1-yl)propanoate] | > 10000 |
| CCOC(=O)C(Cn1cccn1)OC(=O)Nc1c(C)cccc1CC (centres unmarked) [Compound 46, Ethyl 2-{[(2-ethyl-6-methylphenyl)carbamoyl]oxy}-3-(1H-pyrazol-1-yl)propanoate] | 100 to 1000 |
| CCOC(=O)C(Cn1cccn1)OC(=O)Nc1c(CC)cccc1CC (centres unmarked) [Compound 48, Ethyl 2-{[(2,6-diethylphenyl)carbamoyl]oxy}-3-(1H-pyrazol-1-yl)propanoate] | 100 to 1000 |
